Measurements as given in patent US20240368173A1, “TRICYCLIC GPR65 MODULATORS” (PATHIOS THERAPEUTICS LIMITED, priority 2021, published 2024).
Where two headings read alike, the source gives them in different places.

Target: human recombinant GPR65 (Homo sapiens, UniProt Q8IYL9)
Assay: Human GPR65 cAMP HTRF antagonist assay
Type: cell-based
Method in brief: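 1321N1 astrocytoma cells stably expressing hrGPR65, with IBMX and EDTA, were preincubated with compound 30 min at room temperature, then acid-activated at assay pH 7.2 (control pH 7.9) for 30 min. cAMP read by HTRF (665/620 nm ratio); IC50 from 4-parameter fit normalised to high/low controls.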

Sequence of human recombinant GPR65 (Q8IYL9 whole entry): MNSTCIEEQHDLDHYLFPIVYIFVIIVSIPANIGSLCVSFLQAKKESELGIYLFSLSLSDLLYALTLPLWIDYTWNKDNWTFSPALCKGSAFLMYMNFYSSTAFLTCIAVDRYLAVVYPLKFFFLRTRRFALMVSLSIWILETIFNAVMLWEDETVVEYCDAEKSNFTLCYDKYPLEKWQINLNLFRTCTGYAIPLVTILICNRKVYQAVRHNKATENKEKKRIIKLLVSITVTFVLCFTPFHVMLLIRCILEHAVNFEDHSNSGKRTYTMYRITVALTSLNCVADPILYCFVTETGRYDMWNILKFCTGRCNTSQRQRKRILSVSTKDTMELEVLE

Row | Compound | IC50 [nM] | IC50 (1321N1-hrGPR65 cells, cAMP HTRF, assay pH 7.2, read-out: hGPR65 IC50 (Activity of selected compounds according to the invention)) [nM]
1 | N#Cc1cncc(-c2cc(F)c(NC(=O)N3[C@H]4CC[C@@H]3c3n[nH]c(=O)cc3C4)cc2Cl)c1 [Compound 127, (6S,9R)-N-(5-Chloro-4-(5-cyanopyridin-3-yl)-2-fluorophenyl)-3-oxo-3,5,6,7,8,9-hexahydro-2H-6,9-epiminocyclohepta[c]pyridazine-10-carboxamide] | < 500 | 
2 | C=C1c2ccnc(F)c2[C@H]2CC[C@@H]1N2C(=O)Nc1cc(Cl)c(Cl)cc1F [Compound 106, (6S,9R)-N-(4,5-Dichloro-2-fluorophenyl)-1-fluoro-5-methylene-6,7,8,9-tetrahydro-5H-6,9-epiminocyclohepta[c]pyridine-10-carboxamide] | 500 to 5000 | 
3 | O=C(Nc1cc(Cl)c(-c2ccc3conc3c2)cc1F)N1[C@H]2CC[C@@H]1c1n[nH]c(=O)cc1C2 [Compound 198, (6S,9R)-N-(4-(Benzo[c]isoxazol-6-yl)-5-chloro-2-fluorophenyl)-3-oxo-3,5,6,7,8,9-hexahydro-2H-6,9-epiminocyclohepta[c]pyridazine-10-carboxamide] | < 500 | 
4 | CCOc1ccc(-c2cc(F)c(NC(=O)N3[C@H]4CC[C@@H]3c3c[nH]c(=O)cc3C4)cc2Cl)cn1 [Compound 272, (6S,9R)-N-(5-Chloro-4-(6-ethoxypyridin-3-yl)-2-fluorophenyl)-3-oxo-3,5,6,7,8,9-hexahydro-2H-6,9-epiminocyclohepta[c]pyridine-10-carboxamide] | < 500 | 
5 | CN(C(=O)N1C2CCC1c1ccc(=O)n(C)c1C2)c1cc(Cl)c(Cl)cc1F (racemic) [Compound 288, (±)—N-(4,5-Dichloro-2-fluorophenyl)-N,1-dimethyl-2-oxo-2,5,6,7,8,9-hexahydro-1H-5,8-epiminocyclohepta[b]pyridine-10-carboxamide] |  | > 5000
6 | O=C(Nc1cc(Cl)c(C(F)(F)F)cc1F)N1[C@H]2CC[C@@H]1c1ccnnc1C2 [Compound 85, (5R,8S)-N-(5-Chloro-2-fluoro-4-(trifluoromethyl)phenyl)-6,7,8,9-tetrahydro-5H-5,8-epiminocyclohepta[c]pyridazine-10-carboxamide] | < 500 | 
7 | CC(C)Oc1ccc(NC(=O)N2[C@H]3CC[C@@H]2c2ccnc(F)c2C3)cc1Cl [Compound 70, (5R,8S)-N-(3-Chloro-4-isopropoxyphenyl)-1-fluoro-6,7,8,9-tetrahydro-5H-5,8-epiminocyclohepta[c]pyridine-10-carboxamide] | < 500 | 
8 | O=C(Nc1ccc(Br)c(C(F)(F)F)c1)N1[C@@H]2CC[C@H]1c1n[nH]c(=O)cc1C2 [Compound 48, (6R,9S)-N-(4-Bromo-3-(trifluoromethyl)phenyl)-3-oxo-3,5,6,7,8,9-hexahydro-2H-6,9-epiminocyclohepta[c]pyridazine-10-carboxamide] | 500 to 5000 | 
9 | CO[C@H]1C[C@H](Oc2ccc(-c3cc(F)c(NC(=O)N4[C@H]5CC[C@@H]4c4n[nH]c(=O)cc4C5)cc3Cl)cn2)C1 [Compound 306, (6S,9R)-N-(5-Chloro-2-fluoro-4-(6-((1r,3R)-3-methoxycyclobutoxy)pyridin-3-yl)phenyl)-3-oxo-3,5,6,7,8,9-hexahydro-2H-6,9-epiminocyclohepta[c]pyridazine-10-carboxamide] | < 500 | 
10 | C=C1c2c(ccnc2F)C2CCC1N2C(=O)Nc1cc(Cl)c(Cl)cc1F (racemic) [Compound 154, (±)—N-(4,5-Dichloro-2-fluorophenyl)-1-fluoro-9-methylene-6,7,8,9-tetrahydro-5H-5,8-epiminocyclohepta[c]pyridine-10-carboxamide] | < 500 | 
11 | O=C(Nc1cc(Cl)c(-c2ccc(OCC(F)F)nc2)cc1F)N1[C@H]2CC[C@@H]1c1n[nH]c(=O)cc1C2 [Compound 305, (6S,9R)-N-(5-Chloro-4-(6-(2,2-difluoroethoxy)pyridin-3-yl)-2-fluorophenyl)-3-oxo-3,5,6,7,8,9-hexahydro-2H-6,9-epiminocyclohepta[c]pyridazine-10-carboxamide] | < 500 | 
